{"source": "patent US12589093B2", "about": "“Plasma kallikrein inhibitors and methods of use thereof in ocular disorders” (BIOCRYST PHARMACEUTICALS, INC., priority 2019, dated 2026)", "key": {"[1]": {"assay": "Aqueous solubility (deionized water)", "assay_type": "physicochemical", "conditions": "room temperature"}, "[2]": {"assay": "Partition coefficient (octanol-phosphate buffer)", "assay_type": "physicochemical", "conditions": "pH 7.4"}, "pKa by UV-metric method": {"assay": "pKa by UV-metric method", "assay_type": "physicochemical", "conditions": "read-out: pKa Values (second value)"}, "human plasma kallikrein": {"target": "T1, human plasma kallikrein (Homo sapiens, UniProt P03952)", "T1 construct": "purchased Enzyme Research Laboratories, South Bend, IN, USA", "T1 sequence (P03952 391-638 limits assumed)": "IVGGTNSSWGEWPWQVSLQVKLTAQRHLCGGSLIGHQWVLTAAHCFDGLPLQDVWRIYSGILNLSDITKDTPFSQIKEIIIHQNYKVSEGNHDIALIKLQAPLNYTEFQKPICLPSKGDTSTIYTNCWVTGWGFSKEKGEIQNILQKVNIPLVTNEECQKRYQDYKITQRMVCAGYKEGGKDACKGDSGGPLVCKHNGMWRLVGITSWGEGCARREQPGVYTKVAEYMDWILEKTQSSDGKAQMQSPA", "T1 sequence (P03952 20-390 partner limits assumed)": "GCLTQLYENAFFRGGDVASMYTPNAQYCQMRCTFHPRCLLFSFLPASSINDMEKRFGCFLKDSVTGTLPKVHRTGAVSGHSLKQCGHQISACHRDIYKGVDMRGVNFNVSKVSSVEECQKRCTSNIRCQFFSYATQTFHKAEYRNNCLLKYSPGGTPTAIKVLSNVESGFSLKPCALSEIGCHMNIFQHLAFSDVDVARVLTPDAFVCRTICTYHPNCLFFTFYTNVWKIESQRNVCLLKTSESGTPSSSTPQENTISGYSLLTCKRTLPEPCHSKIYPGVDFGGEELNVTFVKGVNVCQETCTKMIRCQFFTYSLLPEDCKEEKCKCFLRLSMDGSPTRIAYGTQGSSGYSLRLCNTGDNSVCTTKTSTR", "assay": "Plasma kallikrein activity, chromogenic substrate S2302", "assay_type": "biochemical", "experimental": "The effect of compounds of the disclosure on human plasma kallikrein activity is determined by the method described in Zhang et al. (Medicinal Chemistry, 2006, No. 6, p 547). Briefly, plasma kallikrein activity is determined using a chromogenic substrate (S2302). In these experiments, 2 nM plasma kallikrein (Enzyme Research Laboratories, South Bend, IN, USA) is incubated with 80 μM S2302 (H-D-Pro-Phe-Arg-p-nitroaniline) in the absence or presence of increasing concentrations of compounds of the disclosure in a final volume of 200 μL Tris-HCI buffer (200 mM NaCl; 2.5 mM CaCl2; 50 mM Tris-HCl, pH 7.8). Assay reactions were initiated by adding enzyme into pre-mixed solution of inhibitors and substrate (enzyme initiated reaction) After incubation at 30° C., the activity of plasma kallikrein is measured as a change in absorbance at OD 405 nm (for example using a BioTek PowerWave X340 Microplate Reader, Winooski, VT, USA or equivalent device). Data are analyzed using appropriate software (for example, Four Parameter Logistic Curve, SigmaPlot software, Systat Software, Inc., San Jose, CA, USA or equivalent)."}, "Dutch belted rabbits": {"test_system": "Dutch belted rabbits", "assay": "Ocular tolerability after suprachoroidal (SCS) injection", "assay_type": "in vivo", "experimental": "(§1) Dutch belted rabbits were used in the study.\n(§2) 100 μL of the suspension was administered bilaterally to the suprachoroidal space of the eye, at a dose of 0.5 mg/eye. Two rabbits (4 eyes) were treated per time point, except at day 28, when 3 rabbits were treated. Plasma was collected at 3 hours, 1 day, 3 days, 7 days, 10 days, 14 days, 21 days, 28 days, 56 days, and 84 days post-dose. Aqueous humor, vitreous humor, peripheral retina, peripheral sclera/choroid/RPE, central retina, and central sclera/choroid/RPE punch punch tissues were collected at 1 day, 7 days, 14 days, 28 days, 56 days and 84 days post-dose. Ocular examinations and intraocular pressure (IOP) were also assessed, anterior and posterior segments, at 1 day, 7 days, 14 days, 28 days, 56 days, and 84 days post-dose. Redness, chemosis, discharge, opacity, aqueous flare, cellular flare, vitreous flare, retinal vasculature, retinal and choroidal pathology were assessed at those time points."}, "[3]": {"assay": "Ocular PK (tissue drug levels) after SCS injection", "assay_type": "in vivo, Dutch belted rabbits", "experimental": "as §1, §2"}, "[4]": {"assay": "Systemic (plasma) PK after SCS injection", "assay_type": "in vivo, Dutch belted rabbits", "conditions": "SCS 0.5 mg/eye, FIG. 5", "experimental": "as §1, §2"}}}
{"molecule": "C=Cc1cc(C(=O)Nc2ccc(C(=N)N)cc2)c(-c2ccc(C(=O)NCC3CC3)nc2C(=O)O)cc1OC.Cl", "note": "[BCX4161, avoralstat]", "values": [{"measurement": "solubility", "setting": "[1]", "result": "20 to 40", "unit": "µg/mL"}, {"measurement": "Partition Coefficient (octanol-phosphate buffer), log D7.4", "setting": "[2]", "result": "log D7.4 = 1.9"}, {"measurement": "pKa", "setting": "pKa by UV-metric method", "result": 11.4}, {"measurement": "inhibition of human plasma kallikrein activity (in words)", "setting": "human plasma kallikrein", "result": "potent and highly specific inhibitor"}, {"measurement": "tolerability", "setting": "Dutch belted rabbits; 0.5% suspension, single SCS injection, 0.5 mg/eye", "result": "well tolerated"}, {"measurement": "ocular exam score", "setting": "Dutch belted rabbits; all observations, SCS 0.5 mg/eye", "result": 0}, {"measurement": "conjunctival redness and chemosis", "setting": "Dutch belted rabbits; day 1 post-dose, SCS 0.5 mg/eye", "result": "Mild"}, {"measurement": "adverse events", "setting": "Dutch belted rabbits; days 7, 14, 28, 56, or 84 post-dose, SCS 0.5 mg/eye", "result": "No adverse events"}, {"measurement": "duration of highly favorable PK profile", "setting": "[3]; 0.5% suspension, single SCS injection", "result": "at least 3 months"}, {"measurement": "drug levels in central and peripheral RPE/choroid/sclera", "setting": "[3]; SCS 0.5 mg/eye, FIG. 1", "result": "High drug levels"}, {"measurement": "drug levels in central and peripheral retina", "setting": "[3]; SCS 0.5 mg/eye, FIG. 2", "result": "High levels"}, {"measurement": "drug levels in the aqueous humor", "setting": "[3]; SCS 0.5 mg/eye, FIG. 4C", "result": "low levels"}, {"measurement": "drug levels in the vitreous humor", "setting": "[3]; SCS 0.5 mg/eye, FIGS. 4A and 4B", "result": "moderate to low levels"}, {"measurement": "time high drug levels present in central and peripheral RPE/choroid/sclera", "setting": "[3]; after SCS injection 0.5 mg/eye", "result": "≥ 84", "unit": "days"}, {"measurement": "time high drug levels present in central and peripheral retina", "setting": "[3]; after SCS injection 0.5 mg/eye", "result": "≥ 84", "unit": "days"}, {"measurement": "systemic exposure", "setting": "[4]", "result": "minimal to no systemic exposure"}]}
